The target in the test is T1, Caspase-3 (Homo sapiens, UniProt P42574).
T1 sequence (P42574 whole entry): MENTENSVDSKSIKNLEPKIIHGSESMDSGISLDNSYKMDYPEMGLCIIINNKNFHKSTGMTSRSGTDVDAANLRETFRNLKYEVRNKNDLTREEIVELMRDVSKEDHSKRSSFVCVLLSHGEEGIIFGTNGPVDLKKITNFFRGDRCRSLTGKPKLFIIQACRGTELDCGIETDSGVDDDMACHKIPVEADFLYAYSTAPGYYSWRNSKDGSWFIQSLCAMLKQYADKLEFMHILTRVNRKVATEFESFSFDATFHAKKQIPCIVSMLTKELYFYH
The experiment in a line: Inhibitory concentration of compound against caspase-3.

SMILES strings stand for the structures.

The term IC50 denotes the concentration at which inhibition is half-maximal.

In the case of `COc1ccc(Br)cc1CC(=O)N[C@H](C(=O)N[C@@H](CC(=O)O)C(=O)CSCc1ccccc1)C(C)C`, the midpoint of inhibition, the IC50, lay at 17.7 nM.

The record behind these values is ChEMBL document CHEMBL1148306, “Reducing the peptidyl features of caspase-3 inhibitors: a structural analysis” (J Med Chem, 2004).
